Measured values as given in US20140045776A1, “METHOD FOR INCREASING THE SHELF LIFE OF FOOD PRODUCTS” (GALACTIC S.A., priority 2011, published 2014).

Tested on: aerobic bacteria
Test: Shelf life of minced meat stored at 4° C. (total number of aerobic bacteria)
Type: cell-based
Method: The usual formulation of a minced meat was prepared with the following ingredients:
Preservatives were added to this basic formulation, the maximum percentage being 4% (of a fermentate having a main-salt concentration of 40%) compared with the whole of the meat-based food product.
The minced meats are prepared according to the following procedure:
a) Preparing of the meat: the meat and fat are cut into small pieces and minced using a mincer having a 4 mm mincing grille. The meat, fat and other ingredients are then disposed by means of a mixer of the Kenwood type having a type K stirring blade. Operate the stirring for 30 seconds (minimum power).
b) Sampling: the product thus obtained is divided into 100 g samples and placed in plastic bags.
c) Storage: the products obtained are packaged in stretch film and stored at a temperature of 4° C.±1° C. for 10 days.
Twice a week, the pH, the activity of the water (Aw) and total number of aerobic bacteria were evaluated on the samples.
The shelf life of the product prepared without a preservative (reference) was compared with that of the product containing standard potassium lactate—Galoflow PL (Galactic SA) and that of the product containing the fermentate obtained by sugar fermentation by Bacillus coagulans spp. […] The results are set out in graph 1. […]

Question: With `CC(O)C(=O)[O-].[K+]` (centres unmarked) [potassium lactate] as the compound, how does the “preservative effect on the meat matrix” value (Example 2, minced meat, each at a concentration not impacting on the taste (0.05% potassium acetate, 2% potassium lactate), graph 2) read?
Answer: preservative effect superior to that of potassium acetate

Question: And the “effect on shelf life of the product” value (Example 3, minced meat, potassium lactate with main-salt concentration 60% at various concentrations, 4° C., graph 3)?
Answer: increases the shelf life of the product
